Assay results from patent US20250152580A1, “METHODS FOR TREATING IMMUNE DISEASES” (Ascentage Pharma (Suzhou) co., Ltd., priority 2022, published 2025).
Entries after “also recorded” stand apart in the source; their conditions may differ.

Tested on: OVA induced asthma model
Experiment: OVA (ovalbumin) induced asthma model in Balb/cA mice
Type: in vivo
Details: for pathological score in lung tissues (H&E): vehicle 4.08±0.23
Source text: Ovalbumin (OVA)-sensitized and challenged BALB/c mice are widely used as an asthma model and are characterized by high levels of serum IgE, airway inflammation, epithelial hypertrophy, goblet cell hyperplasia, and AHR, which are similar to the features observed in human allergic asthma.
Female Balb/cA mice (8 weeks old) were obtained from Shanghai Jihui Laboratory Animal Co. Ltd. Animals were housed and handled in a temperature-controlled environment with a 12-h light/12-h dark cycle. A total of 66 mice were assigned to 6 groups by randomization based on body weight.
Mice in Group 2 are intraperitoneally immunized with OVA (25 μg) emulsified in Imject alum (2.0 mg of Al[OH]3) on day 1. During this sensitization phase, the mice produce anti-OVA IgE antibodies, which bind IgE receptors on mast cells. After this sensitization, the mice are intratracheally challenged with OVA from day 8 today 14, resulting in OVA cross-linked IgE on mast cells and leading to degranulating mast cells. Mice then develop clinical features of asthma. The mice in the Group 1 normal control group were sensitized and challenged with […] (without OVA).
Mice in Group 1 and Group 2 were treated with vehicle for 7 days (po, qd, from day 8 to day 14). Mice in Group 3 were treated with 50 mg/kg Cpd. X for 8 days (iv, biw, day 1 and day 4). Mice in Group 4 were treated with 30 mg/kg Cpd. 4 for 7 days (po, qd, from day 8 to day 14). Mice in Group 5 were treated with 100 mg/kg Cpd. 4 for 7 days (po, qd, from day 8 to day 14). 3 mg/kg dexamethasone was used as positive control which was orally administered to mice in Group 6 for 7 days (qd, from day 8 to day 14). The protocols and procedures involving the care and use of animals were approved by the Institutional Animal Care and Use Committee (IACUC) at KCI (Suzhou, China).
Airway responsiveness was determined invasively based on lung resistance.
After challenge with aerosolized methacholine. Briefly, mice were challenged with methacholine aerosol in increasing concentrations (0, 6.25, 12.5, and 25 mg/mL in saline) on day 13 by using the noninvasive pulmonary function instrument. Data on lung resistance were continuously collected, and mean values were selected to express changes in airway function and regarded as one form of inflammation expression. Data are presented as the airway stenosis index (penh).
Twenty-four hours after the final OVA challenge (on day 15), mice were killed, and BAL cells were collected by means of slow injection of ice-cold PBS into the trachea, which was repeated 3 times. Numbers of cells in BAL fluid were counted with a chamber. Number of eosinophils in a total of 100 cells was counted under a microscope. Results are expressed as percentage of eosinophils of BAL fluid.
Twenty-four hours after the final OVA challenge (on day 15), mice were killed, and the serum was collected. The OVA-specific IgE levels were measured with the method of enzyme linked immunosorbent assay (ELISA) according to manufacturer protocol.
Twenty-four hours after the final OVA challenge (on day 15), mice were killed, and the lung tissue samples were collected and fixed in 4% paraformaldehyde. Then, they were embedded in paraffin and cut into […] sections for histopathological analysis. Lung sections were then stained with hematoxylin and eosin (H&E) to calculate the inflammatory changes. The histopathological score was evaluated microscopically in a blinded manner. Five arbitrarily selected fields of each mouse were photographed with an optical microscope and the images were determined and analyzed in detail. […]

[1] = day 15, Cpd. 4 30 and 100 mg/kg po qd, Cpd. X 50 mg/kg iv biw, dexamethasone 3 mg/kg po qd, compared with Vehicle

SMILES: O=C(NS(=O)(=O)c1ccc(NC[C@H]2COCCO2)c([N+](=O)[O-])c1)c1ccc(N2CCN(CC3=C(c4ccc(Cl)cc4)CC4(CCC4)CC3)CC2)cc1Oc1cnc2[nH]ccc2c1 [Cpd. 4, (S)-N-((4-(((1,4-dioxan-2-yl)methyl)amino)-3-nitrophenyl)sulfonyl)-2-((1H-pyrrolo[2,3-b]pyridin-5-yl)oxy)-4-(4-((6-(4-chlorophenyl)spiro[3.5]non-6-en-7-yl)methyl)piperazin-1-yl)benzamide]
- pathological score in lung tissues (H&E) (30 mg/kg po qd day 8-14, day 15): 2.64±0.08
- pathological score in lung tissues (H&E) (100 mg/kg po qd day 8-14, day 15): 2.66±0.17
- pathological score in lung tissues (in words) (Cpd. 4 and Cpd. X, compared with Vehicle): significantly ameliorated
- percentage of eosinophils in BALF [1]: downregulated markedly; also recorded: significantly downregulated
- serum OVA-specific IgE (ELISA) [1]: significantly reduced; also recorded: significantly decreased
- airway stenosis index (penh), airway hyper-responsiveness (AHR) (methacholine challenge day 13, Cpd. 4 30 and 100 mg/kg po qd day 8-14, Cpd. X 50 mg/kg iv biw, dexamethasone 3 mg/kg po qd, compared with Vehicle): significant inhibitory activity; also recorded: significantly reduced
